Experimental data published in patent US12552772B2, “2-pyrazole anilines and related analogs for inhibiting YAP/TAZ-TEAD” (KATHOLIEKE UNIVERSITEIT LEUVEN, priority 2021, dated 2026).

Tests used:
NCI-H226 = experiment: Mesothelioma cell line proliferation assay (ATPlite), NCI-H226; type: cell-based; conditions: Homo sapiens, 144 h; NCI-H226 cells, 6 days, ATPlite cell viability
Method in brief: (§1)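 Mesothelioma cells seeded at 1500 cells/well in RPMI 1640 with 10% FBS, incubated overnight, then treated with compound dose-response in DMSO for 6 days at 37° C, 5% CO2. Viability read by ATPlite luminescence; percent inhibition used to derive EC50.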

[1] = system: YAP/TAZ-TEAD transcription; experiment: Reporter gene assay for measuring the inhibition of YAP/TAZ-TEAD transcription (TEAD-responsive element luciferase reporter in Hek293T cells); type: cell-based; conditions: Homo sapiens, HEK-293T, 24 hours incubation
Method in brief: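 Percent inhibition, scaled between vehicle (0%) and a positive control inhibitor (100%), came from SteadyLite luciferase signal after 24 h compound exposure at 37 °C/5% CO2. Cells: Hek293T transiently carrying a TEAD-responsive luciferase reporter; EC50 derived.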

H2452 = experiment: Mesothelioma cell line proliferation assay, H2452; type: cell-based; conditions: Homo sapiens, NCI-H2452; H2452 cells
NCI-H2052 = experiment: Mesothelioma cell line proliferation assay (ATPlite), NCI-H2052; type: cell-based; conditions: Homo sapiens, NCI-H2052, 144 h, NCI-H2052 cells, 6 days, ATPlite cell viability
Method in brief: as §1

YAP = conditions: mouse models of YAP-driven tumorigenesis; cited from earlier work
[2] = system: NF2 mutant mesothelioma cell lines; conditions: NF2 mutant mesothelioma cell lines (but not WT mesothelioma); cited from earlier work

Compound	EC50 (NCI-H226)	EC50 [1]	EC50 (H2452)	EC50 (NCI-H2052)	suppression of the oncogenic activity of YAP (YAP)	sensitivity of YAP-TEAD transcription [2]	sensitivity of viability [2]
CNS(=O)(=O)CCNc1ccc(-c2ccc(F)cc2)cc1-c1ccn(Cc2cccnc2)n1 [compound 086, 2-((4′-fluoro-3-(1-(pyridin-3-ylmethyl)-1H-pyrazol-3-yl)-[1,1′-biphenyl]-4-yl)amino)-N-methylethane-1-sulfonamide]	1000 to 10000 nM	< 1000 nM	> 10000 nM				
CNS(=O)(=O)CCNc1ccc(-c2ccc(C(F)(F)F)cc2)cc1-c1ccn(Cc2cccnc2)n1 [compound 087, N-methyl-2-((3-(1-(pyridin-3-ylmethyl)-1H-pyrazol-3-yl)-4′-(trifluoromethyl)-[1,1′-biphenyl]-4-yl)amino)ethane-1-sulfonamide]	1000 to 10000 nM	< 1000 nM	> 10000 nM				
CNS(=O)(=O)CCNc1ccc(-c2ccc(F)c(F)c2)cc1-c1ccn(Cc2cccnc2)n1 [compound 093, 2-((3′,4′-difluoro-3-(1-(pyridin-3-ylmethyl)-1H-pyrazol-3-yl)-[1,1′-biphenyl]-4-yl)amino)-N-methylethane-1-sulfonamide]	< 1000 nM	< 1000 nM	> 10000 nM				
CNS(=O)(=O)CCNc1ccc(-c2ccccc2)cc1-c1ccn(Cc2ccccc2)n1 [compound 102, 2-((3-(1-benzyl-1H-pyrazol-3-yl)-[1,1′-biphenyl]-4-yl)amino)-N-methylethane-1-sulfonamide]	> 10000 nM	< 1000 nM	> 10000 nM				
CNS(=O)(=O)CCNc1ccc(-c2ccc(F)cc2)cc1-c1ccn(C)n1 [compound 117, 2-((4′-fluoro-3-(1-methyl-1H-pyrazol-3-yl)-[1,1′-biphenyl]-4-yl)amino)-N-methylethane-1-sulfonamide]	> 10000 nM	< 1000 nM	> 10000 nM				
CNS(=O)(=O)CCNc1ccc(-c2ccc(C(F)(F)F)cc2)cc1-c1ccn(C)n1 [compound 118, N-methyl-2-((3-(1-methyl-1H-pyrazol-3-yl)-4′-(trifluoromethyl)-[1,1′-biphenyl]-4-yl)amino)ethane-1-sulfonamide]	1000 to 10000 nM	< 1000 nM	> 10000 nM				
CNS(=O)(=O)CCNc1ccc(-c2cccc(F)c2)cc1-c1ccn(C)n1 [compound 119, 2-((3′-fluoro-3-(1-methyl-1H-pyrazol-3-yl)-[1,1′-biphenyl]-4-yl)amino)-N-methylethane-1-sulfonamide]	> 10000 nM	< 1000 nM	> 10000 nM				
CNS(=O)(=O)CCNc1ccc(-c2ccc(F)c(F)c2)cc1-c1ccn(C)n1 [compound 124]	1000 to 10000 nM	< 1000 nM	> 10000 nM				
C=CC(=O)NCc1cnc(-c2cccc(C(F)(F)F)c2)cc1-c1ccn(C(F)F)n1 [compound 215, N-((4-(1-(difluoromethyl)-1H-pyrazol-3-yl)-6-(3-(trifluoromethyl)phenyl)pyridin-3-yl)methyl)acrylamide]	< 1000 nM	< 1000 nM		1000 to 10000 nM			
C=CC(=O)NCc1cnc(N2CCC(F)(F)CC2)cc1-c1ccn(C(F)F)n1 [compound 221, N-((4-(1-(difluoromethyl)-1H-pyrazol-3-yl)-6-(4,4-difluoropiperidin-1-yl)pyridin-3-yl)methyl)acrylamide]	< 1000 nM	< 1000 nM		1000 to 10000 nM			
verteporfin					significantly suppressed the oncogenic activity of YAP	sensitive	sensitive

The next lines start with results.

EC50 (NCI-H226)	EC50 [1]	EC50 (H2452)	EC50 (NCI-H2052)	Compound	suppression of the oncogenic activity of YAP (YAP)	sensitivity of YAP-TEAD transcription [2]	sensitivity of viability [2]
< 1000 nM	< 1000 nM		1000 to 10000 nM	C=CC(=O)NCc1cnc(-c2cccc(F)c2)cc1-c1ccn(C(F)F)n1 [compound 211, N-((4-(1-(difluoromethyl)-1H-pyrazol-3-yl)-6-(3-fluorophenyl)pyridin-3-yl)methyl)acrylamide]			
< 1000 nM	< 1000 nM		1000 to 10000 nM	C=CC(=O)NCc1cnc(-c2cccc(Cl)c2)cc1-c1ccn(C(F)F)n1 [compound 213, N-((6-(3-chlorophenyl)-4-(1-(difluoromethyl)-1H-pyrazol-3-yl)pyridin-3-yl)methyl)acrylamide]			
< 1000 nM	< 1000 nM		> 10000 nM	C=CC(=O)NCc1cc(-c2ccc(F)cc2)cc(-c2cnn(C(F)F)c2)n1 [compound 227, N-((6-(1-(difluoromethyl)-1H-pyrazol-4-yl)-4-(4-fluorophenyl)pyridin-2-yl)methyl)acrylamide]			
< 1000 nM	< 1000 nM		< 1000 nM	C=CC(=O)NCc1cnc(-c2ccc(F)cc2)cc1-n1ccc(C)n1 [compound 240, N-((6-(4-fluorophenyl)-4-(3-methyl-1H-pyrazol-1-yl)pyridin-3-yl)methyl)acrylamide]			
< 1000 nM	< 1000 nM		1000 to 10000 nM	C=CC(=O)NCc1ccc(-c2ccc(F)cc2)cc1-n1ccc(C)n1 [compound 241, N-((4′-fluoro-3-(3-methyl-1H-pyrazol-1-yl)-[1,1′-biphenyl]-4-yl)methyl)acrylamide]			
< 1000 nM	< 1000 nM		1000 to 10000 nM	C=CC(=O)NCc1cnc(-c2ccc(F)cc2)cc1-n1cc(C)cn1 [compound 243, N-((6-(4-fluorophenyl)-4-(4-methyl-1H-pyrazol-1-yl)pyridin-3-yl)methyl)acrylamide]			
< 1000 nM	< 1000 nM		< 1000 nM	C=CC(=O)NCc1cnc(-c2ccc(F)cc2)cc1-n1ncc(C)n1 [compound 244, N-((6-(4-fluorophenyl)-4-(4-methyl-2H-1,2,3-triazol-2-yl)pyridin-3-yl)methyl)acrylamide]			
< 1000 nM	< 1000 nM		< 1000 nM	C=CC(=O)NCc1cnc(-c2ccc(F)cc2)nc1-c1ccn(C(F)F)n1 [compound 254, N-((4-(1-(difluoromethyl)-1H-pyrazol-3-yl)-2-(4-fluorophenyl)pyrimidin-5-yl)methyl)acrylamide]			
